# Source: ChEMBL document CHEMBL1201862, “PubChem BioAssay data set” (2004)
# Activity calls are given as the source filed them.
# What was measured:
# [1] = target: T1, Carboxy-terminal domain RNA polymerase II polypeptide A small phosphatase 1 (Homo sapiens, UniProt Q9GZU7); test: CTDSP1 inhibitors, concentration-response, biochemical, absorbance readout, ultra-high-throughput screen actives (AID 540297); type: functional
# T1 sequence (Q9GZU7 whole entry): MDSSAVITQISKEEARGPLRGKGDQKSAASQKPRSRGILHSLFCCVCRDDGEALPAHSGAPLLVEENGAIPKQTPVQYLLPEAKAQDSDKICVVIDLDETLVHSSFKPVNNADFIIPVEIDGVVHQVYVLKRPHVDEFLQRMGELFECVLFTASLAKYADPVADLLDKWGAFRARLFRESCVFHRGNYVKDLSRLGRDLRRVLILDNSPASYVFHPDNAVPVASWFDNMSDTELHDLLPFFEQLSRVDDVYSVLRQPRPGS
# [2] = target: DNA dC->dU-editing enzyme APOBEC-3A (Homo sapiens, UniProt P31941); test: Dose Response confirmation of small molecule APOBEC3A DNA Deaminase Inhibitors via a fluorescence-based single-stranded DNA deaminase assay. [Related pubchem assays (depositor defined):AID493011, AID493024]; type: functional
# [3] = target: T2, RNA-binding protein pos-1 (Caenorhabditis elegans, UniProt G5EF15); test: disruptors of C. elegans POS-1 RNA interaction – biochemical, fluorescence polarization, dose response (AID 1964);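 further: purified POS-1 fused to maltose binding protein made in E. coli; potency of compounds blocking POS-1 binding to fluorescent RNA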
# T2 sequence (G5EF15 whole entry): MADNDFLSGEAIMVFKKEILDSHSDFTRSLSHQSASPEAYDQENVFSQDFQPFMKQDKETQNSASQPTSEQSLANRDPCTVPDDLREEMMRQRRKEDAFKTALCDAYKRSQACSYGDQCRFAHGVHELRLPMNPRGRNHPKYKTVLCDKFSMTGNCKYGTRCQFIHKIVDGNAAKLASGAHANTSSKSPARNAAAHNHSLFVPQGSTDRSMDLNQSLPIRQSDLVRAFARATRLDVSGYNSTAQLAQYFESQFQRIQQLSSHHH
# [4] = target: DNA dC->dU-editing enzyme APOBEC-3G (Homo sapiens, UniProt Q9HC16); type: functional;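 further: Dose-response counterscreen measuring inhibition of APOBEC3G DNA deaminase activity, run while confirming APOBEC3A inhibitors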
# [5] = target: Genome polyprotein (dengue virus type 2, UniProt P29990); test: flavivirus cap methylation enzyme inhibition – biochemical, confirmation dose response, primary screen (AID 588689); type: functional
# [6] = target: T3, Zinc finger protein mex-5 (Caenorhabditis elegans, UniProt Q9XUB2); test: potency of MEX-5 RNA-binding blockers – biochemical, C. elegans, fluorescence polarization, dose response (AID 1960)
# T3 sequence (Q9XUB2 whole entry): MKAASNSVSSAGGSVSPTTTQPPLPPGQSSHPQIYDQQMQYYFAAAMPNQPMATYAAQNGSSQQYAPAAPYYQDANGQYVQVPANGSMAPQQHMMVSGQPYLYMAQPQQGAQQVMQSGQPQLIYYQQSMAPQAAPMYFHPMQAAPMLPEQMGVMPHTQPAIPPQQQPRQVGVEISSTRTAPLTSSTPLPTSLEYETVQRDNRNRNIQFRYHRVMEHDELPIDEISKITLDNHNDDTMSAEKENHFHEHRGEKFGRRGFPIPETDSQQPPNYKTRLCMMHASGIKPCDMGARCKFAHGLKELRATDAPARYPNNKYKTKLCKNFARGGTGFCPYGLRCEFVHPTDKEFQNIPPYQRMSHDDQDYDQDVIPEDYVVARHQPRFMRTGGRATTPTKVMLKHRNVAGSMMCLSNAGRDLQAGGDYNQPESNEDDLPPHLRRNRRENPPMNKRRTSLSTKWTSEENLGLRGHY
# [7] = system: Escherichia coli; test: microbe, parasite or virus in culture
# [8] = target: G-protein coupled receptor 55 (Homo sapiens, UniProt Q9Y2T6); test: inhibition of LPI-stimulated GPR55 beta-arrestin translocation – imaging, U2OS, beta-arrestin-GFP, LPI agonist, primary screen (AID 2013); type: functional;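 further: antagonist potency measured as reduced agonist-driven arrestin aggregation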
# [9] = target: Peroxisome proliferator-activated receptor gamma/Nuclear receptor coactivator 2 (Homo sapiens, UniProt P37231); type: functional;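 further: agonist potency for raising coactivator recruitment to the receptor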
# [10] = target: Peroxisome proliferator-activated receptor gamma/Nuclear receptor coactivator 3 (Homo sapiens, UniProt P37231); type: functional;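 further: agonist potency for raising coactivator recruitment to the receptor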
# [11] = target: Induced myeloid leukemia cell differentiation protein Mcl-1 (Homo sapiens, UniProt Q07820); type: functional
# [12] = target: Peroxisome proliferator-activated receptor gamma/Nuclear receptor coactivator 1 (Homo sapiens, UniProt P37231); type: functional;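 further: agonist potency as compounds enhance coactivator SRC-1 recruitment to PPARgamma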
# [13] = target: T4, Coagulation factor XII (Homo sapiens, UniProt P00748); type: functional;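 further: activated factor XIIa alpha cleaving a fluorogenic AMC peptide substrate; inhibitor potency from loss of enzyme activity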
# T4 sequence (P00748 whole entry): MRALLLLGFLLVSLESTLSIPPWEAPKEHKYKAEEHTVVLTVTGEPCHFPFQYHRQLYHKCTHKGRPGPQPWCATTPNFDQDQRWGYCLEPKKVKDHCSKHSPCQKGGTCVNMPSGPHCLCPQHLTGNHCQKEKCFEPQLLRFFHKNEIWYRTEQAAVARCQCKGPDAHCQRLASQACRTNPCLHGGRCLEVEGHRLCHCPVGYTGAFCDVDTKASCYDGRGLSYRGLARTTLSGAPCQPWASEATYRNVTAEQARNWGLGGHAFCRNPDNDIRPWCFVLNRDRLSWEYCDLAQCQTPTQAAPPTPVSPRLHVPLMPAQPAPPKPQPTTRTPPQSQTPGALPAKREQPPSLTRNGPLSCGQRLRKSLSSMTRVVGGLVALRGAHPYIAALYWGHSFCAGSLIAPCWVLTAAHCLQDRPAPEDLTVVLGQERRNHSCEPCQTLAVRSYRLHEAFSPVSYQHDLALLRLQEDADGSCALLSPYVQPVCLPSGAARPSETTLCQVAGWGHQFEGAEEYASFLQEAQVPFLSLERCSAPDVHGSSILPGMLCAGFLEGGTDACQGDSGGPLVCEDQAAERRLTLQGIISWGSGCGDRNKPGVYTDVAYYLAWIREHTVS
# [14] = target: T5, Rac GTPase-activating protein 1 (Homo sapiens, UniProt Q9H0H5); test: blockers of MgcRacGAP-driven Rac1 GTP hydrolysis – biochemical, ADP Hunter fluorescence, primary and confirmatory, confirmation (AID 624330); type: functional
# T5 sequence (Q9H0H5 whole entry): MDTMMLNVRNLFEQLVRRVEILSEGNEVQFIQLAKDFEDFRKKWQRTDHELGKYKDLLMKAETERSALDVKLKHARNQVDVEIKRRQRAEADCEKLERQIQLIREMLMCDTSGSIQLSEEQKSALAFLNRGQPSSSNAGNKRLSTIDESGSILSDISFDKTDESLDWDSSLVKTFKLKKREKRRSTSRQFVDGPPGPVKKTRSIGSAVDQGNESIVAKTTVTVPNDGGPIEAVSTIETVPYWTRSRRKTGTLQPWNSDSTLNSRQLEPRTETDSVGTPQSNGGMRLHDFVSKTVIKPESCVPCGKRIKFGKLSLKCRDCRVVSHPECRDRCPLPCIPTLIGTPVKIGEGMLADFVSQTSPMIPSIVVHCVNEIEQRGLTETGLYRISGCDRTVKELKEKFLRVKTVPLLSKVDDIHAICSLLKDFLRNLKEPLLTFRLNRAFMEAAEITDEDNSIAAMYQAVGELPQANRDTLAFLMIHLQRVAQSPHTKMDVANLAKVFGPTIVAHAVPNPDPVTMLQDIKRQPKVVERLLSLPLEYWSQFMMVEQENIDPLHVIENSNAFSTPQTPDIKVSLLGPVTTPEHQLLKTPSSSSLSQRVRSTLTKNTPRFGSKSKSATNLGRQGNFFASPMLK
# [15] = target: T6, Ubiquitin-conjugating enzyme E2 N (Homo sapiens, UniProt P61088); type: functional;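 further: Dose-response confirmation in a TR-FRET assay detecting UBC13-driven polyubiquitin chain formation, inhibition measured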
# T6 sequence (P61088 whole entry): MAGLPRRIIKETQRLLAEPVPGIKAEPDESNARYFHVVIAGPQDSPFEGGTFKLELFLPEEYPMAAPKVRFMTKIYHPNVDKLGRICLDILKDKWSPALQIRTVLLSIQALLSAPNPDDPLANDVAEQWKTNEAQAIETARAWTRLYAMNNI
# [16] = target: Nucleotide-binding oligomerization domain-containing protein 2 (Homo sapiens, UniProt Q9HC29); test: inhibition of NOD2-driven NF-kB reporter – cell-based, luminescence, uHTS, HEK293 (AID 1566); type: functional
# [17] = NIH3T3 cell viability loss – ATP luminescence, mouse fibroblasts, counter-screen, dose response (AID 2010); type: functional, cell-based;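 further: cells exposed to compound for about 90 hours before reading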
# [18] = system: HEK293; test: cells; type: functional, cell-based; conditions: Homo sapiens
# [19] = system: HEK293; test: cells; type: functional, cell-based; conditions: Homo sapiens; remark: listed apart in the source
# [20] = Trypanosoma cruzi growth suppression in host cells – NIH3T3 host cells, beta-gal luminescence, confirmation (AID 2044); type: functional, cell-based;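 further: intracellular parasites grown in NIH/3T3 mouse fibroblasts as host cells; luminescent beta-galactosidase reporter signal from transgenic T. cruzi replicating inside host cells; inhibitors lower the luminescence signal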
# [21] = system: HEK293; test: NOD2 signaling inhibitors in MDP-stimulated cells, cell-based, uHTS, luminescence (AID 2001); type: functional; conditions: Homo sapiens
# [22] = system: HEK293; test: inhibition of NOD1-driven NF-kB reporter – cell-based, luminescence, uHTS, primary screen (AID 1578); type: functional; conditions: Homo sapiens
# [23] = system: HEK293; test: cells; type: functional, cell-based; conditions: Homo sapiens; remark: listed apart in the source
# [24] = viability of uninfected HEp-2 cells – cell-based, HTS, cytotoxicity control for RSV inhibitor project, dose response (AID 2410); type: functional; conditions: human respiratory syncytial virus
# G-protein coupled receptor 55, sequence (Q9Y2T6 whole entry): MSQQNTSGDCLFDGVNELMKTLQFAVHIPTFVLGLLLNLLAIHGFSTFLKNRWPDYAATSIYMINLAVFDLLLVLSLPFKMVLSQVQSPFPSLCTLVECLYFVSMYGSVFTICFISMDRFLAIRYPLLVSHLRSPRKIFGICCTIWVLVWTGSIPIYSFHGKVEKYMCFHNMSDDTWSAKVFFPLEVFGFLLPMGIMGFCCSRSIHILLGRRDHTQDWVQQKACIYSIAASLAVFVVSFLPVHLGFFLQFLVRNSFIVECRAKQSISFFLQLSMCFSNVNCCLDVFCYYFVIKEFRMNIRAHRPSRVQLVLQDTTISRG
# DNA dC->dU-editing enzyme APOBEC-3G, sequence (Q9HC16 whole entry): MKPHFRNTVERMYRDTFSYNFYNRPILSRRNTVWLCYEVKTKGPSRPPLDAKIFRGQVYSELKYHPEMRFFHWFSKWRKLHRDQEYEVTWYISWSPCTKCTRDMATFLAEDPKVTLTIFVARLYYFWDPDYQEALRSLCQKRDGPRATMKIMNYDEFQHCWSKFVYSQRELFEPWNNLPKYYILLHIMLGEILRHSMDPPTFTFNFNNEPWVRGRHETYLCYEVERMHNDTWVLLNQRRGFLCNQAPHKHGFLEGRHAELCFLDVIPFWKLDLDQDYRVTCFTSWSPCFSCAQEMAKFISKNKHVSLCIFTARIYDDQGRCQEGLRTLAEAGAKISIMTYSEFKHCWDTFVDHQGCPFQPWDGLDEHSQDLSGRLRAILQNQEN
# Induced myeloid leukemia cell differentiation protein Mcl-1, sequence (Q07820 whole entry): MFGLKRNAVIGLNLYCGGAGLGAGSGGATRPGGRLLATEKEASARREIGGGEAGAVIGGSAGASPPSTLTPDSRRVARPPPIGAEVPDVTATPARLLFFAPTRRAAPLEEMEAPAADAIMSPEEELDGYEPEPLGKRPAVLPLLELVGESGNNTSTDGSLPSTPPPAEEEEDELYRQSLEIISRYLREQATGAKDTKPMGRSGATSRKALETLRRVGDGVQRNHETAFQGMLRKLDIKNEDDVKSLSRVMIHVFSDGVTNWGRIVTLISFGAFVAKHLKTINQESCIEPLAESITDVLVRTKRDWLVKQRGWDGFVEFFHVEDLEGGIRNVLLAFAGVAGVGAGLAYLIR
# DNA dC->dU-editing enzyme APOBEC-3A, sequence (P31941 whole entry, the tested form may be a part): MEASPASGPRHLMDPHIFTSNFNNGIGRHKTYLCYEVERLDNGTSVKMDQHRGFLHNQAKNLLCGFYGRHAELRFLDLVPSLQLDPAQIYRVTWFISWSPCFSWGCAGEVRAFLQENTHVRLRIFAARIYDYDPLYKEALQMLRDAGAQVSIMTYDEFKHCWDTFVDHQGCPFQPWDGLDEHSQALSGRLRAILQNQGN
# Genome polyprotein, sequence (P29990 2492-3391 limits assumed): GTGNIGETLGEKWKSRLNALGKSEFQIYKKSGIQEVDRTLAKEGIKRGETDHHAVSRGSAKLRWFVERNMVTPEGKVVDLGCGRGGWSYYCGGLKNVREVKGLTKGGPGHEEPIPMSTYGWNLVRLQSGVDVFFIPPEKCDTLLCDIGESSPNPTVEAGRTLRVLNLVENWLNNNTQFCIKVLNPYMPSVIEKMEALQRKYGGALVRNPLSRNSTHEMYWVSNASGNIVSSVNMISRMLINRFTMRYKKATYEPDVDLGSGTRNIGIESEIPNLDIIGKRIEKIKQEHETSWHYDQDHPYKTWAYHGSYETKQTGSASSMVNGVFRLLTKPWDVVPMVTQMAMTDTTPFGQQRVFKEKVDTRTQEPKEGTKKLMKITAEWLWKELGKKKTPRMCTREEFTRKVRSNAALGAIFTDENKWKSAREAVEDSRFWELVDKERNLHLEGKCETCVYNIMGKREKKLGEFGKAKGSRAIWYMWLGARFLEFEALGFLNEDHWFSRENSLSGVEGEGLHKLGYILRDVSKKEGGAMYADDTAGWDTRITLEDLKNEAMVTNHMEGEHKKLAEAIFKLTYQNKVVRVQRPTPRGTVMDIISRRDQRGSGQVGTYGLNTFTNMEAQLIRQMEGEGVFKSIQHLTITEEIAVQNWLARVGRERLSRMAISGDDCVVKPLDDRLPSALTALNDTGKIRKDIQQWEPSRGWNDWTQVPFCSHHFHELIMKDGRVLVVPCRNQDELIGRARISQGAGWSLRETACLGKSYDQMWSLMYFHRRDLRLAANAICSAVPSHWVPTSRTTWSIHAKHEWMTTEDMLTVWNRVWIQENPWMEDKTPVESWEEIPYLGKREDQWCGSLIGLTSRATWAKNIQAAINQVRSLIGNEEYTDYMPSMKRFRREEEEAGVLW
# Nucleotide-binding oligomerization domain-containing protein 2, sequence (Q9HC29 whole entry, the tested form may be a part): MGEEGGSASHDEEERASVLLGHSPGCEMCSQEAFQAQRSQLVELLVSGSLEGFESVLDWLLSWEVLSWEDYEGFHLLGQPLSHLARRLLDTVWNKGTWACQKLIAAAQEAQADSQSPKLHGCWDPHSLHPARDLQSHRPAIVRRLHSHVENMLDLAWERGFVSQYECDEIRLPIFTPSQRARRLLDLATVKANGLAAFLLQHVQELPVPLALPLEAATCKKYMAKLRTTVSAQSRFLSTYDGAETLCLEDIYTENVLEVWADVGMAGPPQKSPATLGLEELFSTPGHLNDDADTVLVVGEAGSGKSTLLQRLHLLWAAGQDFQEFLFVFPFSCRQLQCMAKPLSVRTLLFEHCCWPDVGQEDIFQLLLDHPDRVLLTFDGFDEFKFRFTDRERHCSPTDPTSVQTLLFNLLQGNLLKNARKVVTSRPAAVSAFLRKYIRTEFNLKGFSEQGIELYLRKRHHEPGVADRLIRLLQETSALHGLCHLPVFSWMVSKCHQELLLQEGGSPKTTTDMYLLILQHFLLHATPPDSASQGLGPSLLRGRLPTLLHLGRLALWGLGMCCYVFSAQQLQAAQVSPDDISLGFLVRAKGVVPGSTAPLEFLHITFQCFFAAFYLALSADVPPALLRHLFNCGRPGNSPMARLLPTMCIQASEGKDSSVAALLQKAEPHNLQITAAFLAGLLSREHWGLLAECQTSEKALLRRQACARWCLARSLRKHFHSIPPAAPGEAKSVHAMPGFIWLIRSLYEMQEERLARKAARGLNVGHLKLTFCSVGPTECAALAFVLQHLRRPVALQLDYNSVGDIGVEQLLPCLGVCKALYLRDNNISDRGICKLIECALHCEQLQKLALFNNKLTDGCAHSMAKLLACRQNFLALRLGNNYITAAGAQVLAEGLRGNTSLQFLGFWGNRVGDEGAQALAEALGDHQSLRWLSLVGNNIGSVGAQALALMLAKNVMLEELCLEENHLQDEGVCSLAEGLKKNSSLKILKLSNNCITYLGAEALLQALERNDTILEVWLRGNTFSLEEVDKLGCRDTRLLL
smiles,measurement,setting,value
Cc1cc(C(=O)O)ccc1-c1ccc(/C=C2\NC(=O)N(Cc3ccc(F)cc3)C2=O)o1,IC50,[1],3.42 µM (active)
same,IC50,[2],20.8 µM (active)
same,EC50,[3],195 µM (active)
same,IC50,[4],42 µM (active)
same,IC50,[5],> 100 µM (active)
same,EC50,[6],191 µM (active)
CC(C)(C)OC(=O)[C@H](Cc1ccccc1)NC(=O)c1[nH]cnc1C(=O)NC1CCN(C(=O)OC(C)(C)C)CC1,AC50,[7],19 µM (active)
same,IC50,[8],5.3 µM (active)
CC(C)(O)C#Cc1ccc(CN2CCN(C3CCCCC3)C(CCO)C2)cc1 (stereo unspecified),EC50,[9],> 79.4 µM (not active)
same,EC50,[10],> 79.4 µM (not active)
same,IC50,[11],21.2 µM (not active)
same,EC50,[12],> 79.4 µM (not active)
COCCNCC(=O)Nc1nc(C)cs1,IC50,[13],> 50 µM (inactive)
same,IC50,[14],105 µM (active)
Cc1ccc(NC(=O)CSc2nnc([C@H](C)NC(=O)OC(C)(C)C)o2)c(C)c1,IC50,[13],> 50 µM (inactive)
Cn1c(=O)c2c(ncn2Cc2ccccc2)n(C)c1=O,IC50,[15],> 20 µM (inactive)
COc1ccc(/C=N/NS(=O)(=O)c2ccc(F)cc2)cc1COc1cc(F)ccc1[N+](=O)[O-],EC50,[16],> 20 µM (inactive)
same,EC50,[17],> 60 µM (inconclusive)
same,IC50,[18],6.45 µM (active)
same,IC50,[19],> 20 µM (inactive)
same,EC50,[20],2.19 µM (active)
same,IC50,[21],> 20 µM (inactive)
same,EC50,[22],> 20 µM (inactive)
same,IC50,[23],> 20 µM (inactive)
COc1cc(NS(=O)(=O)c2ccc(Nc3nc(-c4ccccc4)cs3)cc2)nc(OC)n1,CC50,[24],11.3 µM (active)
same,IC50,[8],4.49 µM (active)
